For 17 compounds, MIC results are on record in ChEMBL document CHEMBL1151063, “Synthesis and antibacterial activity of 2-functionalized-vinyl 1-methylcarbapenems and related compounds” (1993).

Assay type in all cases: functional
The test system of one assay is Escherichia coli. The assay is described as follows: Antibacterial activity against Escherichia coli NIHJ JC-2.
A further assay relates to Pseudomonas aeruginosa. The assay is described as follows: Antibacterial activity against Pseudomonas aeruginosa SR24.
Another assay deals with Enterococcus faecalis. The assay is described as follows: Antibacterial activity against Streptococcus faecalis SR 1004.
The test system of assay [1] is Staphylococcus aureus. The assay is described as follows: Antibacterial activity against Staphylococcus aureus FDA JC-1.
Another assay relates to Enterobacter cloacae. The assay is described as follows: Minimum inhibitory concentration for antibacterial activity against Enterobacter cloacae AI 3047.
Assay [2] relates to Proteus vulgaris. The assay is described as follows: Minimum inhibitory concentration for antibacterial activity against Proteus vulgaris CN-329, activity expressed as MIC.
Another assay has as its system Serratia marcescens. The assay is described as follows: Minimum inhibitory concentration for antibacterial activity against Serratia marcescens A13880.
For assay [3], the system named is Staphylococcus aureus. The assay is described as follows: Minimum inhibitory concentration for antibacterial activity against high resistant group of methicillin-resistant Staphylococcus aureus SR-3626(HR).
Assay [4] has as its system Staphylococcus aureus. The assay is described as follows: Minimum inhibitory concentration for antibacterial activity against low resistant group of methicillin-resistant Staphylococcus aureus SR-3131(LR).
Assay [5] deals with Proteus vulgaris. The assay is described as follows: Minimum inhibitory concentration for antibacterial activity against Proteus vulgaris CN-329.

Converted amounts (≈) assume the structure as drawn.

Regarding `C[C@@H]([O-])[C@H]1C(=O)N2C(C(=O)[O-])=C(/C=C/C[N+]34CCC(CC3)CC4)[C@H](C)[C@H]12.[Na+]`, the minimal inhibitory concentration (MIC) in the assay on Escherichia coli was 0.2 mg/L; against Pseudomonas aeruginosa, 50 mg/L; in the assay with Enterococcus faecalis, 0.8 mg/L; against Staphylococcus aureus [1] it was 0.02 mg/L.

Take `C[C@@H]([O-])[C@H]1C(=O)N2C(C(=O)[O-])=C(/C=C/Cn3cc[n+]4ccccc34)[C@H](C)[C@H]12.[Na+]`: the MIC worked out at 0.1 mg/L against Escherichia coli, 25 mg/L against Pseudomonas aeruginosa, 0.8 mg/L against Enterococcus faecalis and 0.02 mg/L with Staphylococcus aureus [1].

With `C[C@@H](O)[C@H]1C(=O)N2C(C(=O)[O-])=C(/C=C/c3cccc[n+]3C)[C@H](C)[C@H]12`, the MIC against Escherichia coli came to 1.6 mg/L (≈ 4.87 µM); in the assay on Pseudomonas aeruginosa, 50 mg/L (≈ 152 µM); against Enterococcus faecalis it was 6.3 mg/L (≈ 19.2 µM); with Staphylococcus aureus [1], 0.1 mg/L (≈ 0.305 µM).

On to `C/C(=C\C1=C(C(=O)[O-])N2C(=O)[C@H]([C@@H](C)O)[C@H]2[C@H]1C)C[n+]1ccccc1`, for which the MIC in the assay on Escherichia coli turned out to be 0.1 mg/L (≈ 0.292 µM); against Pseudomonas aeruginosa, 6.3 mg/L (≈ 18.4 µM); with Enterococcus faecalis it was 0.8 mg/L (≈ 2.34 µM); against Staphylococcus aureus [1], 0.02 mg/L (≈ 0.0584 µM).

For `C[C@@H](O)[C@H]1C(=O)N2C(C(=O)[O-])=C(C[n+]3ccccc3)[C@H](C)[C@H]12`, the MIC in the assay with Escherichia coli amounted to 0.1 mg/L (≈ 0.331 µM); against Enterobacter cloacae it was 0.2 mg/L (≈ 0.662 µM); in the assay on Pseudomonas aeruginosa, 1.6 mg/L (≈ 5.29 µM); against Proteus vulgaris [2], 0.4 mg/L (≈ 1.32 µM); with Enterococcus faecalis, 6.3 mg/L (≈ 20.8 µM); against Serratia marcescens it was 1.6 mg/L (≈ 5.29 µM). Further, the results for the minimal inhibitory concentration (MIC) against Staphylococcus aureus [3], against Staphylococcus aureus [4] and against Staphylococcus aureus [1] were 50 mg/L (≈ 165 µM), 0.1 mg/L (≈ 0.331 µM) and less than 0.006 mg/L, respectively.

Consider `C[C@@H](O)[C@H]1C(=O)N2C(C(=O)[O-])=C(/C=C/COC(N)=O)[C@H](C)[C@H]12.[Na+]`, for which the minimal inhibitory concentration (MIC) against Escherichia coli was determined as 0.2 mg/L; against Pseudomonas aeruginosa, 50 mg/L; with Enterococcus faecalis it was 1.6 mg/L; against Staphylococcus aureus [1], 0.02 mg/L.

`C[C@@H](O)[C@H]1C(=O)N2C(C(=O)[O-])=C(C[n+]3cccc(N)c3)[C@H](C)[C@H]12`: the MIC came to 0.2 mg/L (≈ 0.63 µM) with Escherichia coli, 1.6 mg/L (≈ 5.04 µM) with Pseudomonas aeruginosa, 6.3 mg/L (≈ 19.9 µM) against Enterococcus faecalis and 0.006 mg/L (≈ 0.0189 µM) in the assay with Staphylococcus aureus [1].

Regarding `C[C@@H]([O-])[C@H]1C(=O)N2C(C(=O)[O-])=C(/C=C/CSc3cc[n+](C)cc3)[C@H](C)[C@H]12.[Na+]`, the MIC was 0.2 mg/L against Escherichia coli, 12.5 mg/L against Pseudomonas aeruginosa, 0.4 mg/L against Enterococcus faecalis and 0.01 mg/L against Staphylococcus aureus [1].

As to `C[C@@H](O)[C@H]1C(=O)N2C(C(=O)[O-])=C(/C=C/C[n+]3ccccc3)[C@H](C)[C@H]12`, the MIC in the assay with Escherichia coli was found to be 0.05 mg/L (≈ 0.152 µM); with Enterobacter cloacae it was 0.2 mg/L (≈ 0.609 µM); with Pseudomonas aeruginosa, 1.6 mg/L (≈ 4.87 µM); against Proteus vulgaris [5] it was 0.2 mg/L (≈ 0.609 µM); against Enterococcus faecalis it was 0.4 mg/L (≈ 1.22 µM); with Serratia marcescens, 0.8 mg/L (≈ 2.44 µM). Also, the MIC with Staphylococcus aureus [3] was found to be 50 mg/L (≈ 152 µM); in the assay with Staphylococcus aureus [4], 0.05 mg/L (≈ 0.152 µM); with Staphylococcus aureus [1] it was 0.006 mg/L (≈ 0.0183 µM).

Consider `C[C@@H](O)[C@H]1C(=O)N2C(C(=O)[O-])=C(C[n+]3ccc(C(N)=O)cc3)[C@H](C)[C@H]12`, for which the MIC was 0.4 mg/L (≈ 1.16 µM) against Escherichia coli, 1.6 mg/L (≈ 4.63 µM) with Pseudomonas aeruginosa, 25 mg/L (≈ 72.4 µM) against Enterococcus faecalis and 0.02 mg/L (≈ 0.0579 µM) with Staphylococcus aureus [1].

Turning to `C[C@@H](O)[C@H]1C(=O)N2C(C(=O)[O-])=C(/C=C/c3cc[n+](C)cc3)[C@H](C)[C@H]12`, the MIC in the assay on Escherichia coli amounted to 0.4 mg/L (≈ 1.22 µM); with Pseudomonas aeruginosa, 25 mg/L (≈ 76.1 µM); against Enterococcus faecalis, 1.6 mg/L (≈ 4.87 µM); against Staphylococcus aureus [1] it was 0.05 mg/L (≈ 0.152 µM).

In the case of `C[C@@H](O)[C@H]1C(=O)N2C(C(=O)[O-])=C(C[n+]3ccc(-c4cnco4)cc3)[C@H](C)[C@H]12`, the MIC amounted to 0.2 mg/L (≈ 0.541 µM) in the assay with Escherichia coli, 1.6 mg/L (≈ 4.33 µM) in the assay on Pseudomonas aeruginosa, 6.3 mg/L (≈ 17.1 µM) in the assay on Enterococcus faecalis and 0.01 mg/L (≈ 0.0271 µM) against Staphylococcus aureus [1].

As to `C[C@@H](O)[C@H]1C(=O)N2C(C(=O)[O-])=C(/C=C/CSc3nncs3)[C@H](C)[C@H]12.[Na+]`, the MIC with Escherichia coli was 3.1 mg/L; against Pseudomonas aeruginosa it was 100 mg/L; in the assay on Enterococcus faecalis, 1.6 mg/L; against Staphylococcus aureus [1] it was 0.02 mg/L.

Take `C[C@@H](O)[C@H]1C(=O)N2C(C(=O)[O-])=C(C[n+]3cccc(C(N)=O)c3)[C@H](C)[C@H]12`: the MIC was 0.4 mg/L (≈ 1.16 µM) in the assay on Escherichia coli, 1.6 mg/L (≈ 4.63 µM) in the assay on Pseudomonas aeruginosa, 25 mg/L (≈ 72.4 µM) with Enterococcus faecalis and 0.02 mg/L (≈ 0.0579 µM) against Staphylococcus aureus [1].

`Cc1ccc[n+](CC2=C(C(=O)[O-])N3C(=O)[C@H]([C@@H](C)O)[C@H]3[C@H]2C)c1`: the MIC came out at 0.2 mg/L (≈ 0.632 µM) in the assay with Escherichia coli, 1.6 mg/L (≈ 5.06 µM) against Pseudomonas aeruginosa, 12.5 mg/L (≈ 39.5 µM) against Enterococcus faecalis and 0.01 mg/L (≈ 0.0316 µM) against Staphylococcus aureus [1].

Take `C[C@@H](O)[C@H]1C(=O)N2C(C(=O)[O-])=C(/C=C/c3ccc[n+](C)c3)[C@H](C)[C@H]12`: the MIC against Escherichia coli turned out to be 0.1 mg/L (≈ 0.305 µM); in the assay with Pseudomonas aeruginosa, 25 mg/L (≈ 76.1 µM); in the assay on Enterococcus faecalis it was 0.2 mg/L (≈ 0.609 µM); with Staphylococcus aureus [1] it was 0.01 mg/L (≈ 0.0305 µM).

Turning to `C[C@@H](O)[C@H]1C(=O)N2C(C(=O)O)=C(SCCNC=N)C[C@H]12` [IMIPENEM ANHYDROUS], the MIC against Escherichia coli worked out at 0.1 mg/L (≈ 0.334 µM); with Enterobacter cloacae, 0.4 mg/L (≈ 1.34 µM); in the assay on Pseudomonas aeruginosa it was 1.6 mg/L (≈ 5.34 µM); in the assay on Proteus vulgaris [5], 0.4 mg/L (≈ 1.34 µM); in the assay with Enterococcus faecalis, 1.6 mg/L (≈ 5.34 µM); in the assay with Serratia marcescens, 0.8 mg/L (≈ 2.67 µM). Further, the figures for the MIC against Staphylococcus aureus [3], in the assay on Staphylococcus aureus [4] and with Staphylococcus aureus [1] were 50 mg/L (≈ 167 µM), 0.05 mg/L (≈ 0.167 µM) and 0.006 mg/L (≈ 0.02 µM), respectively.
